# Test results reported in patent US8673347B2 (Creabilis Therapeutics S.p.A., priority 2005, dated 2014).
# Legend:
# JAK3 = JAK3 (Homo sapiens, UniProt P52333); assay: Kinase inhibition profile; format: biochemical; conditions: 200 nM; read-out: inhibitory activity
# Description: (§1) The preparation of CT327 and the reference compounds was conducted following a similar procedure. CT327 also was tested at a concentration of 200 nM.
# (§2) The inhibitory activity of CT327 against the tested tyrosine kinase and serine/threonine kinases is shown in the Table a and b, respectively, reported in FIG. 9b.
# FLT3 = FLT3 (Homo sapiens, UniProt P36888); assay: Kinase inhibition profile; format: biochemical; conditions: 200 nM; read-out: inhibitory activity
# Description: as §1, §2
# TYK2 = TYK2 (Homo sapiens, UniProt P29597); assay: Kinase inhibition profile; format: biochemical; conditions: 200 nM; read-out: inhibitory activity
# Description: as §1, §2
# CHK2 = CHK2 (Homo sapiens, UniProt O96017); assay: Kinase inhibition profile; format: biochemical; conditions: 200 nM; read-out: inhibitory activity
# Description: as §1, §2
# BLK = BLK (Homo sapiens, UniProt P51451); assay: Kinase inhibition profile; format: biochemical; conditions: 200 nM; read-out: inhibitory activity
# Description: as §1, §2
# KIT = KIT (Homo sapiens, UniProt P10721); assay: Kinase inhibition profile; format: biochemical; conditions: 200 nM; read-out: inhibitory activity
# KIT, sequence (P10721 26-976, species assumed): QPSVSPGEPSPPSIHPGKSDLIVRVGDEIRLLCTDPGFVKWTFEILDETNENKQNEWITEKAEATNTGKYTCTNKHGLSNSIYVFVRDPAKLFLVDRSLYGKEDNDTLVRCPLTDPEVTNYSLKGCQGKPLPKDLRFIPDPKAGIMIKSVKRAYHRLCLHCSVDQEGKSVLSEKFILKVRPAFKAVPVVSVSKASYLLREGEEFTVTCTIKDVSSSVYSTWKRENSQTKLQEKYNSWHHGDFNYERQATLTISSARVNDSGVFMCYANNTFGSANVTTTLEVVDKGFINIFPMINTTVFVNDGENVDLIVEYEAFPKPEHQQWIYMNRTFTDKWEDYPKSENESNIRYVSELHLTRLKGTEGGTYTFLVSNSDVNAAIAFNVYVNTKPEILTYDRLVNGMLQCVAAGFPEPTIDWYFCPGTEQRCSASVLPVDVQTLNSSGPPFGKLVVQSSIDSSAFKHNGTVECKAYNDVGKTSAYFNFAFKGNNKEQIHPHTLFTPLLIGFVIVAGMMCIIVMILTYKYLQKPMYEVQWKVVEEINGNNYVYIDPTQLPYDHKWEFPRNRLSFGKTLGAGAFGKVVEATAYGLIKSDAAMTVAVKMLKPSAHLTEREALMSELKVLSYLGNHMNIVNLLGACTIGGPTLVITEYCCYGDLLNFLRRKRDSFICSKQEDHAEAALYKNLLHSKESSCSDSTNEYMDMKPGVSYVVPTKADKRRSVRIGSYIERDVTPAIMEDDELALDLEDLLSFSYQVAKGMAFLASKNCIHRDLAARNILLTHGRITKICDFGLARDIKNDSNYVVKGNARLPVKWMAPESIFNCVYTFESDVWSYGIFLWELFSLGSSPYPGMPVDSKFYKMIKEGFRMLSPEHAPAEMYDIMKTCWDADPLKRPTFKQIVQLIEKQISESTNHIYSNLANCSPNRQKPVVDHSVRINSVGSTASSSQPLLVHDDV
# Description: as §1, §2
# RET = RET (Homo sapiens, UniProt P07949); assay: Kinase inhibition profile; format: biochemical; conditions: 200 nM; read-out: inhibitory activity
# Description: as §1, §2
# CHK1 = CHK1 (Homo sapiens, UniProt O14757); assay: Kinase inhibition profile; format: biochemical; conditions: 200 nM; read-out: inhibitory activity
# CHK1, sequence (O14757 whole entry, species assumed): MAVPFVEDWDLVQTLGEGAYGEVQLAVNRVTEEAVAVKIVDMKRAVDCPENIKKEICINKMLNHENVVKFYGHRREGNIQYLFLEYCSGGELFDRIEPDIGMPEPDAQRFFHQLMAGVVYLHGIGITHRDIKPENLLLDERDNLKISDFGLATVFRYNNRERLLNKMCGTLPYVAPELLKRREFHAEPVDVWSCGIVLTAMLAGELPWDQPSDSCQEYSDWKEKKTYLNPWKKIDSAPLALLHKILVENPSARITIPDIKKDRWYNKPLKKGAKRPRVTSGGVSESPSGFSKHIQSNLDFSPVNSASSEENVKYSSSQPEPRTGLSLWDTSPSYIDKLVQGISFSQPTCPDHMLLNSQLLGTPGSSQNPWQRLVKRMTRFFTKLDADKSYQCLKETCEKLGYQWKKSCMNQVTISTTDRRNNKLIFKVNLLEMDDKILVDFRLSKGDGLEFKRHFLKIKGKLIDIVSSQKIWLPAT
# Description: as §1, §2
# MET = MET (Homo sapiens, UniProt P08581); assay: Kinase inhibition profile; format: biochemical; conditions: 200 nM; read-out: inhibitory activity
# Description: as §1, §2
# JAK1 = JAK1 (Homo sapiens, UniProt P23458); assay: Kinase inhibition profile; format: biochemical; conditions: 200 nM; read-out: inhibitory activity
# Description: as §1, §2
# MER = MER (Homo sapiens, UniProt Q12866); assay: Kinase inhibition profile; format: biochemical; conditions: 200 nM; read-out: inhibitory activity
# MER, sequence (Q12866 21-999): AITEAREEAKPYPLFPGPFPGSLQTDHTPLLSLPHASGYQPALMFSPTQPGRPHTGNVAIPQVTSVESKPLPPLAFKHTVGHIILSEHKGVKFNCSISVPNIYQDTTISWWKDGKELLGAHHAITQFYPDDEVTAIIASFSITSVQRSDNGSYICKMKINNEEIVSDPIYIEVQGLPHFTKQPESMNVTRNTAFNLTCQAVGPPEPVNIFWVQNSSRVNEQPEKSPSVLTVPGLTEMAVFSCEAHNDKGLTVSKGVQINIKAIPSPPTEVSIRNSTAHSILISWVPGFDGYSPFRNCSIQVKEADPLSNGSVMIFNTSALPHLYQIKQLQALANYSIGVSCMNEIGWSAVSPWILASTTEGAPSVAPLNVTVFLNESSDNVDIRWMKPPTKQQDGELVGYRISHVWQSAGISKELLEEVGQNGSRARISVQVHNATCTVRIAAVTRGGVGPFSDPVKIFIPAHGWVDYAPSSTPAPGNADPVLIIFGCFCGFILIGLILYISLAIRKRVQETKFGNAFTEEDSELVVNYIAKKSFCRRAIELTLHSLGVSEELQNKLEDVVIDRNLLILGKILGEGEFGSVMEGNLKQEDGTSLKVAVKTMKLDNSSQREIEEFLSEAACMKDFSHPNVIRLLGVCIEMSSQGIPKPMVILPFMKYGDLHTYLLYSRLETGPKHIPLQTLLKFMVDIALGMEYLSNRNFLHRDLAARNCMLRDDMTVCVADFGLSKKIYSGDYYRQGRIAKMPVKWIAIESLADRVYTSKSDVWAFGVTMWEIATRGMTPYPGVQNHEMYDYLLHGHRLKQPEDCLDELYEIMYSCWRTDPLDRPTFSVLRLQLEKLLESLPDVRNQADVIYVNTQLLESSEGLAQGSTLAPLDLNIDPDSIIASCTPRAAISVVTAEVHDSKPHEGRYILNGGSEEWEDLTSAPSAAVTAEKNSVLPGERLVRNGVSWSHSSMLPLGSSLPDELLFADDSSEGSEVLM
# Description: as §1, §2
# JNK2 = JNK2 (Homo sapiens, UniProt P45984); assay: Kinase inhibition profile; format: biochemical; conditions: 200 nM; read-out: inhibitory activity
# JNK2, sequence (P45984 whole entry, species assumed): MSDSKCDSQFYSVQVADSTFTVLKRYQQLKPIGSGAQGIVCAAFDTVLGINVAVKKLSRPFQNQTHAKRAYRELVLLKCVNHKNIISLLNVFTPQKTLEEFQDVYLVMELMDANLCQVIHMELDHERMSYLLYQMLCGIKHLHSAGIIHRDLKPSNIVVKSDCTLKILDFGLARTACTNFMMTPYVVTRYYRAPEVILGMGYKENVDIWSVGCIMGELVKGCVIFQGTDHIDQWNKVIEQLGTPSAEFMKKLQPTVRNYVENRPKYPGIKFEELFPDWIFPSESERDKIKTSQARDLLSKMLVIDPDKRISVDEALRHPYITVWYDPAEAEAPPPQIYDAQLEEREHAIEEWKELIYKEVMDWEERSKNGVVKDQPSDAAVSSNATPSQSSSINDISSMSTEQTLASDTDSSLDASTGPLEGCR
# Description: as §1, §2
# TrkC = TrkC (Homo sapiens, UniProt Q16288); assay: Kinase inhibition profile; format: biochemical; conditions: 200 nM; read-out: inhibitory activity
# TrkC, sequence (Q16288 32-839, species assumed): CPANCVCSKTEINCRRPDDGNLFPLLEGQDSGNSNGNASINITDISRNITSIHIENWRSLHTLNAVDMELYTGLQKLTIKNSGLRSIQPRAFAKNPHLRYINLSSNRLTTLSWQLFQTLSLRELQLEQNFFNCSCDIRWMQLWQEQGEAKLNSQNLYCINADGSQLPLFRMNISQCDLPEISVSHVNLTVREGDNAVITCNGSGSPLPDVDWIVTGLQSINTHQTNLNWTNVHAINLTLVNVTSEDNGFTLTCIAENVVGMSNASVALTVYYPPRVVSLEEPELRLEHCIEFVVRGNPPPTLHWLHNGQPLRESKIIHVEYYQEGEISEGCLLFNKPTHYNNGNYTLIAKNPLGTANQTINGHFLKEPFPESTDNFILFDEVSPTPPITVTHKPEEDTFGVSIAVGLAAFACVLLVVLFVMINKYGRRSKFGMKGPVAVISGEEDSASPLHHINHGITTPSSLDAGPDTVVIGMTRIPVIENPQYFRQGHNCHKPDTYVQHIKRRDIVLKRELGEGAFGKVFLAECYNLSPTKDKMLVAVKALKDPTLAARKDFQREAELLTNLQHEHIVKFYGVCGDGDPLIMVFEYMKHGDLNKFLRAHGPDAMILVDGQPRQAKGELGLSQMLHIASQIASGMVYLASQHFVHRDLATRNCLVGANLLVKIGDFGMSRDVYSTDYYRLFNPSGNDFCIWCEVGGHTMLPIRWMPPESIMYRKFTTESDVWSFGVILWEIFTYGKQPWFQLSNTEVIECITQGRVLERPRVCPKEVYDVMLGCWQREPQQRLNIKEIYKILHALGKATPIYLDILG
# Description: as §1, §2
# [1] = animal model of pancreatic pain; cited from earlier work
# LPS-induced endotoxemia = assay: Plasma cytokines in mice after LPS-induced endotoxemia; format: in vivo; conditions: parallel experiment, treated before LPS; versus vehicle
# Description: A study was performed with the purpose to quantitatively determine a panel of 24 cytokines in the plasma of mice at different time points after LPS-induced endotoxemia and to compare the profiles obtained with those of CT327 pre-treated endotoxemic mice.
# The animals were divided into two experimental groups (55 mice/group) that were treated following this schedule:
# At time 0 both groups received a dose of LPS corresponding to 4 mg/kg, i.p.
# The “treated” experimental group received a single dose of CT327 corresponding to 105.56 mg/kg, i.p. This dose was administered 15 minutes before LPS endotoxemia induction (time 0). At the same time the “control” group received an equivalent volume of vehicle solution.
# Each experimental group was divided into 11 sub-groups with 5 mice/sub-group. Each sub-group was sacrificed at different time points and blood samples collected.
# Time points for blood sample collection were: • Time: time 0 (basal); before LPS treatment • Time: +30 minutes; after LPS treatment • Time: +1 hours; after LPS treatment • Time: +2 hours; after LPS treatment • Time: +3 hours; after LPS treatment • Time: +6 hours; after LPS treatment • Time: +12 hours; after LPS treatment • Time: +18 hours; after LPS treatment • Time: +24 hours; after LPS treatment • Time: +48 hours; after LPS treatment • Time: +72 hours; after LPS treatment
# Blood samples were collected in sodium citrate tubes (100 μl sodium citrate 0.1 M/900 μl of blood) and centrifuged at 1000 g at 4° C. for 10 minutes. Plasma samples were collected and 50 μl/sample were frozen at −80° C. until testing for multiple cytokines profiling. The samples were analyzed in double through the Bio-Plex System (Bio-Rad) by using the 23-plex panel at the Dept. of Genetics, Biology and Biochemistry, Torino University, led by Prof. Silengo. Plasma levels of the following cytokines were determined: IL-1a, IL-1b, IL-2, IL-3, IL-4, IL-5, IL-6, IL-10, IL-12(p40), IL-12(p70), IL-17, G-CSF, GM-CSF, IFN-γ, KC, MIP-1-α, RANTES, TNF-α, IL-9, IL-13, eotaxin, MCP-1, MIP-1-α.
# [2] = Acute single dose toxicity study in mice, oral administration; conditions: both sexes, Balb/c, mouse, in vivo
# Description: (§3) Observations, which included clinical signs and behavioral changes, were performed every 30 minutes in the first 6 hour following administration, and twice a day during the following 7 days.
# Similar results have been obtained following oral administration.
# [3] = tested on: transplanted psoriatic plaques; conditions: 2 weeks of therapy, double-blinded, placebo-controlled; cited from earlier work
# [4] = Acute single dose toxicity study in mice, intraperitoneal route; format: in vivo; conditions: for LD50 at 7 days: Balb/c, mouse, in vivo, ip, single dose intraperitoneal
# Description: as §3
# JAK3, sequence (P52333 whole entry, species assumed): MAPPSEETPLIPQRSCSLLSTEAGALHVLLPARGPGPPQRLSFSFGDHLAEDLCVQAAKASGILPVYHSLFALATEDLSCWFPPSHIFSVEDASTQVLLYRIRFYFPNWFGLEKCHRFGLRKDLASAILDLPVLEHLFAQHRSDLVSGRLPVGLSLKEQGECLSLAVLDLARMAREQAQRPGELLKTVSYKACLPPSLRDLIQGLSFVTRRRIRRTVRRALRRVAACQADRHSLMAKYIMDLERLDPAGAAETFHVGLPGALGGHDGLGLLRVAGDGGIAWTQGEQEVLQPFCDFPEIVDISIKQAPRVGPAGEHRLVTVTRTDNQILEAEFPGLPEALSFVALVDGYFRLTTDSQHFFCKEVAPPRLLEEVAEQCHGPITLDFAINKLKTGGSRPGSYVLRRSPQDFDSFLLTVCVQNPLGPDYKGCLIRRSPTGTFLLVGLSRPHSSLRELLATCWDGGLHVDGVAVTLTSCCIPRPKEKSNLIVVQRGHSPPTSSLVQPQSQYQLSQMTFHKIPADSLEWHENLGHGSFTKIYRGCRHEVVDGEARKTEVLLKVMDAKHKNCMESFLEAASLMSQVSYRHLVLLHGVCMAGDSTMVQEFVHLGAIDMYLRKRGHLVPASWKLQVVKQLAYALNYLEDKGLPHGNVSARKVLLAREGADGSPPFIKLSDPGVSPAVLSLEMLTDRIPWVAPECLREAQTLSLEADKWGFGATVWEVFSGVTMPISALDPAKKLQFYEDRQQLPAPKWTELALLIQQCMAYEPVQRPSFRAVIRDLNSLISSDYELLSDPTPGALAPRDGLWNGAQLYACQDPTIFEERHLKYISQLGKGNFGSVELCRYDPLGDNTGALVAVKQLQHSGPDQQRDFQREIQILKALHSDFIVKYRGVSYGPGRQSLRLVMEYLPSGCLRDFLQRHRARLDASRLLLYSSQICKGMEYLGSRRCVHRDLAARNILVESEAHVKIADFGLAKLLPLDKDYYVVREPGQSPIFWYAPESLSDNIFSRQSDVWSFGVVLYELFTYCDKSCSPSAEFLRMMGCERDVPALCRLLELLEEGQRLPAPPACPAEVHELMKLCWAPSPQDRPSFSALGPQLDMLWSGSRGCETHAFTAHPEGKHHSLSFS
smiles,measurement,setting,value
"COC(=O)[C@]1(O)C[C@@H]2O[C@@]1(C)n1c3ccccc3c3c4c(c5c6ccccc6n2c5c31)C(=O)NC4 [Compound K-252a, K-252a]",inhibition at 0.2 µM,JAK3,> 90%
same,inhibition at 0.2 µM,FLT3,> 90%
same,inhibition at 0.2 µM,TYK2,> 90%
same,inhibition at 0.2 µM,CHK2,> 90%
same,inhibition at 0.2 µM,BLK,80 to 90%
same,inhibition at 0.2 µM,KIT,80 to 90%
same,inhibition at 0.2 µM,RET,> 90%
same,inhibition at 0.2 µM,CHK1,> 90%
same,inhibition at 0.2 µM,MET,80 to 90%
same,inhibition at 0.2 µM,JAK1,80 to 90%
same,inhibition at 0.2 µM,MER,80 to 90%
same,inhibition at 0.2 µM,JNK2,> 90%
same,inhibition at 0.2 µM,TrkC,> 90%
same,hypersensitivity,[1],attenuates hypersensitivity
same,IFN-γ secretion in plasma,LPS-induced endotoxemia,significant reduction
same,MCP-1 secretion in plasma,LPS-induced endotoxemia,significant reduction
same,MIP-α secretion in plasma,LPS-induced endotoxemia,significant reduction
same,RANTES secretion in plasma,LPS-induced endotoxemia,significant reduction
same,TNF-α secretion in plasma,LPS-induced endotoxemia,significant reduction
same,LD50 at 7 days,[2],78 mg/kg
same,psoriasis improvement,[3],significantly improved
same,LD50 at 7 days,"[4]; female mice, read-out: LD50",41.4 mg/kg
same,LD50 at 7 days,"[4]; male mice, read-out: LD50",37.7 mg/kg
same,LD50 at 7 days,"[4]; both sexes, males and females together, read-out: average LD50",39 mg/kg
same,survival,"[4]; female mice, 45 mg/kg, five per group",One female survived out of the five
same,survival,"[4]; female mice, 60 mg/kg, five per group",one
same,survival,"[4]; female mice, doses higher than 60 mg/kg",lethal to all female mice
same,survival,"[4]; female mice, lowest dose (30 mg/Kg)",survived
same,survival,"[4]; male mice, 30 mg/Kg",survived
same,survival,"[4]; male mice, all doses above 30 mg/Kg, within the first 22 hours after dosing",found dead
same,sedation,"[4]; males and females, lowest dose (30 mg/Kg), disappeared within 8-10 hours",very mild/mild sedation
